SMILES strings stand for the structures.

Test [1] deals with p38 phosphorylation in AB12 cells. In words: Western blot, phosphorylation of p38 (Example 1). The test is classed as cell-based, mouse. Conditions: 24 h. As for the experimental part:
(§1) Western blotting. AB12 and AC29 cells were plated on 6-well plates in normal culture medium until near confluency. The cells were then rinsed with sterile PBS and cultured for further 24 h in serum-free culture medium, in the presence or absence of 2×10^−4-10^−5 M risedronate, zoledronate or PBS control, with or without 25 μM geranylgeraniol, or the same volume of ethanol as a vehicle control. Culture medium was discarded and the cells were harvested in lysis buffer (20 mM Tris pH 7.4, 150 mM NaCl, 1 mM EDTA, 1 mM EGTA, 1% Triton, 2.5 mM sodium pyrophosphate, 1 mM β-glycerolphosphate, 1 mM Na3VO4, 1 μg/ml leupeptin (Cell Signaling Technology, Inc.; Danvers, Mass.)) and clarified by centrifugation. After boiling the supernatants in reducing SDS sample buffer, equal amounts of protein (˜50 μg) were loaded per lane and the samples were electrophoresed on 10% polyacrylamide SDS gel and transferred to a nitrocellulose membrane. Unprenylated Rap1A was detected with the antibody SC-1482 and total Rap1 (both prenylated and unprenylated forms of both Rap1A and Rap1B) was detected with the antibody SC-65 (Santa Cruz Biotechnology, Inc.; Santa Cruz, Calif.), according to the manufacturer's recommendations. The phosphorylation status of p38 was studied with anti-phospho-p38 and anti-total p38 antibodies (Cell Signaling Technology, Inc.), as recommended by the manufacturer. […]
(In western blotting, separated proteins are transferred to a membrane and probed.)

For test [2], the system named is p38 phosphorylation in AC29 cells. Nature of the test: Western blot, phosphorylation of p38 (Example 1). The settings on record: 24 h. The test is classed as cell-based, mouse. As for the experimental part: as §1
A further test concerns AB12 cells. In words: Intraperitoneal mouse mesothelioma model, survival. The test is classed as in vivo, BALB/c mice. The settings on record: AB12 i.p. As for the experimental part: In vivo mesothelioma models. Female BALB/c mice, four to eight weeks of age, were obtained from the National Cancer Institute-Frederick Cancer Research Facility (Frederick, Md.) and were housed in the Pathogen-Free Rodent Shared Facility (Comprehensive Cancer Center, University of Alabama at Birmingham). All animal procedures were performed, in accordance with recommendations for the proper care and use of laboratory animals and were approved by the local IACUC. Subcutaneous (s.c.) and intraperitoneal (i.p.) mouse mesothelioma models were evaluated. In the s.c. model, 3×10^6 AB12 cells were first injected s.c. into cohorts of BALB/c mice. Treatments with i.p. BPs or vehicle were started when tumors became palpable on day 10 and continued every six days for a total of 4 treatments. Tumor size was measured bidimensionally with calipers every two to three days and tumor volume calculated by the formula (length×width^2)÷2. Mice were euthanized before tumors reached the size of 2000 mm^3. In the i.p. model, AC29 or AB12 cells (5×10^5/0.5 ml) were injected i.p, into cohorts of 10-12 BALB/c using a 26-gauge needle. Treatment was initiated 6 days after tumor inoculation and the mice were followed for survival. In the i.p. model risedronate (15 mg/kg), zoledronate (0.5 mg/kg) or PBS were administered i.p. three times a week for two weeks.

The subject of test [3] is unprenylated Rap1A in AB-12 mesothelioma cells. Nature of the test: Western blot, unprenylated Rap1A (Example 2). The test is classed as cell-based, mouse. The settings on record: AB-12 cells; 24 h. How it is done: (§2) Western blot analysis. Cells were cultured on 6-well plates in normal culture medium until near confluency. The cells were then rinsed with sterile PBS and cultured for further 24 h in serum-tree culture medium, in the presence or absence of the indicated bisphosphonates. Some cultures were also treated with 25 μM geranylgeraniol (cold, all trans), 1.0 μg/ml LPS (Sigma; St. Louis, Mo.) 10 ng/ml IL-1β (R&D Systems; Minneapolis, Minn.) or TNF-α (R&D Systems). To study bisphosphonate effects on connexin-43 expression, the cells were cultured for 24 h in serum-free culture medium in the presence of the indicated bisphosphonates or PBS as a vehicle control. Culture medium was then discarded, the cells were quickly lysed and prepared into Western blot samples, as described in Merrell et al. (2000) Breast Cancer Res. Treat. 81, 231-241. After boiling the supernatants in reducing sodium docedyl sulfate (SDS) sample buffer, equal amounts of protein (˜20-50 μg) were loaded per lane and the samples were electrophoresed on 10% SDS polyacrylamide gel and transferred to a nitrocellulose membrane. To detect, unprenylated Rap1A, the blots were incubated overnight at 4° C. with the antibody SC-1482 (Santa Cruz Technology (San Diego, Calif.)), diluted 1:1000 in Tris-buffered saline, 0.1% (v/v) Tween-20 (TEST), and then with peroxidase-conjugated anti-goat serum (Pierce; Rockford, Ill.), diluted 1:1000 in TBST. Total Rap1 was detected from stripped blots in a similar fashion, with the antibody SC-65 (Santa Cruz Technology). The phosphorylation status of p38 was investigated using anti-phospho-p38 (Cell Signaling; Beverly, Mass.) and after stripping of the membrane, with anti-total p38 antibodies (Cell Signaling), according to the manufacturer's instructions. Expression of connexin-43 was detected with a rabbit anti-connexin-43 antibody (Zymed Laboratories, Inc.; San Francisco, Calif.), diluted 1:1000 in TBST. The protein bands were visualized by chemiluminescence using SuperSignal West Pico ECL kit (Pierce Biotechnology, Inc.; Rockford, Ill.).

For test [4], the system named is unprenylated Rap1A in MDA-MB-231 breast cancer cells. In words: Western blot, unprenylated Rap1A (Example 2). The settings on record: MDA-MB-231 cells; 24 h. The test is classed as cell-based, human. How it is done:
as §2

For the molecule `O=P(O)(O)C(O)(Cc1cccnc1)P(=O)(O)O` [risedronate], the p38 phosphorylation entry in test [1] and in test [2] was “dose-dependent increase” each time. Moreover, the “long-term (> 60 days) survivors” value with AB12 cells (groups of 12 mice, risedronate 15 mg/kg i.p.) is listed as “three”. The molecule further had a median survival with AB12 cells (zoledronate 0.5 mg/kg or risedronate 15 mg/kg i.p. three times a week for two weeks, PBS 26 days) of 30 days. In addition, the “accumulation of unprenylated Rap1A” value in test [3] and in test [4] was “dose-dependent accumulation” each time.

The values above are taken from patent US20090075941A1, “TREATING NEOPLASMS” (THE UAB RESEARCH FOUNDATION, priority 2006, published 2009).
